From PubChem BioAssay (NCI)
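GI50 is the concentration that inhibits growth by half. TGI: concentration producing complete growth inhibition.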

What was measured:
Experiment in all cases: inhibition of tumour cell growth, NCI panel, 384-well format
[1] = tested on: 786-0 renal
[2] = tested on: A498 renal
[3] = tested on: A549 NSCLC
[4] = tested on: ACHN renal
[5] = tested on: BT-549 breast
[6] = tested on: CAKI-1 renal
[7] = tested on: CCRF-CEM leukemia
[8] = tested on: COLO 205 colon
[9] = tested on: DU-145 prostate
[10] = tested on: EKVX NSCLC
[11] = tested on: HCC-2998 colon
[12] = tested on: HCT-116 colon
[13] = tested on: HCT-15 colon
[14] = tested on: HL-60(TB) leukemia
[15] = tested on: HOP-62 NSCLC
[16] = tested on: HOP-92 NSCLC
[17] = tested on: HS 578T breast
[18] = tested on: HT29 colon
[19] = tested on: IGROV1 ovarian
[20] = tested on: K-562 leukemia
[21] = tested on: KM12 colon
[22] = tested on: LOX IMVI melanoma
[23] = tested on: M14 melanoma
[24] = tested on: MALME-3M melanoma
[25] = tested on: MCF7 breast
[26] = tested on: MDA-MB-231 breast
[27] = tested on: MDA-MB-435 melanoma
[28] = tested on: MDA-MB-468 breast
[29] = tested on: MOLT-4 leukemia

SMILES: CCCCCCCC/C=C/CCCCCCCC(=O)OC[C@H]1O[C@@H](n2ccc(N)nc2=O)C(F)(F)[C@@H]1O
- GI50 [1]: < 0.01 µM
- TGI [1]: < 0.01 µM
- GI50 [2]: < 0.01 µM
- TGI [2]: 14.9 µM
- GI50 [3]: < 0.01 µM
- TGI [3]: 11.9 µM
- GI50 [4]: < 0.01 µM
- TGI [4]: < 0.01 µM
- GI50 [5]: < 0.01 µM
- TGI [5]: < 0.01 µM
- GI50 [6]: < 0.01 µM
- TGI [6]: 2.99 µM
- GI50 [7]: < 0.01 µM
- TGI [7]: < 0.01 µM
- GI50 [8]: < 0.01 µM
- TGI [8]: 0.0496 µM
- GI50 [9]: < 0.01 µM
- TGI [9]: 2.39 µM
- GI50 [10]: 0.0576 µM
- TGI [10]: 15.4 µM
- GI50 [11]: < 0.01 µM
- TGI [11]: 0.0111 µM
- GI50 [12]: < 0.01 µM
- TGI [12]: 10.2 µM
- GI50 [13]: < 0.01 µM
- TGI [13]: 59.7 µM
- GI50 [14]: < 0.01 µM
- TGI [14]: < 0.01 µM
- GI50 [15]: < 0.01 µM
- TGI [15]: < 0.01 µM
- GI50 [16]: 0.0105 µM
- TGI [16]: 22.4 µM
- GI50 [17]: < 0.01 µM
- TGI [17]: 16.5 µM
- GI50 [18]: < 0.01 µM
- TGI [18]: 8.7 µM
- GI50 [19]: < 0.01 µM
- TGI [19]: 81.4 µM
- GI50 [20]: < 0.01 µM
- TGI [20]: 15 µM
- GI50 [21]: < 0.01 µM
- TGI [21]: 15.3 µM
- GI50 [22]: < 0.01 µM
- TGI [22]: 0.0188 µM
- GI50 [23]: < 0.01 µM
- TGI [23]: < 0.01 µM
- GI50 [24]: < 0.01 µM
- TGI [24]: 15.1 µM
- GI50 [25]: < 0.01 µM
- TGI [25]: 14.1 µM
- GI50 [26]: 0.234 µM
- TGI [26]: 13.5 µM
- GI50 [27]: 0.138 µM
- TGI [27]: 15.6 µM
- GI50 [28]: < 0.01 µM
- TGI [28]: < 0.01 µM
- GI50 [29]: < 0.01 µM
- TGI [29]: < 0.01 µM
